The source of these data is ChEMBL document CHEMBL4513101, “Naegleria gruberi Pathogen Box compounds screening” (2021).

SMILES strings stand for the structures. Active and inactive are the calls of the source. No stated cut-off is given here; in the data, active = inhibition of 80% or more and inactive = less.

The test system of the test is Naegleria gruberi. In words: microbe, parasite or virus in culture. The conditions noted are these: NEG-M, CONC 10 uM. It counts as functional.
Description: Growth inhibiting activity of Naegleria gruberi in vitro
In general, inhibition refers to the relative decrease from the control value, in per cent. For the compound `O=C(Nc1ccnc(-c2cccnc2)n1)c1cc(C(F)(F)F)cc(C(F)(F)F)c1`, the inhibition at 10 µM was 44.3% (not active).

With `COc1cc(C2=NCCN2)ccc1-n1cc(-c2cccc(C3=NCCN3)c2)nn1`, the inhibition at 10 µM was 16.2% (not active).

In the case of `Cc1ccc(NC(=O)CC2COc3ccccc3O2)cc1Cl` (configuration not stated), the inhibition at 10 µM is listed as 79.9% (not active).

`COc1ccc(N(CCc2cccc(C)n2)C(C)=O)cc1`: the inhibition at 10 µM is 19.6% (not active).

With `COc1ccc(OC)c(NCc2ccc3nc(N)nc(N)c3c2Cl)c1`, the inhibition at 10 µM is listed as 33.6% (not active).

Consider `N=C(N)c1ccc(-c2cc(-c3ccccc3)on2)cc1`, for which the inhibition at 10 µM is 26.5% (not active).

In the case of `O=C(NC1CCN(c2ccnc3ccccc23)C1)c1cccc(C(F)(F)F)c1` (configuration not stated), the inhibition at 10 µM is on record as 6.7% (not active).

As to `CCOc1ccccc1NC(C)C(=O)Nc1cc(C(F)(F)F)ccc1N1CCOCC1` (configuration not stated), the inhibition at 10 µM was 20.8% (not active).

On to `Nc1ccc2ncnc(Nc3ccc(OCc4cccc(F)c4)c(Cl)c3)c2c1`, for which the inhibition at 10 µM is 10.6% (not active).

For `CC(C)(C)OC(=O)N1CCN(c2nccc(-c3ccc(-c4ccc(Cl)cc4)s3)n2)CC1`, the inhibition at 10 µM is listed as 17% (not active).

As for `CCc1nn(C)c(C(=O)NCc2ccc(Oc3ccc(C)cc3)cc2)c1Cl` [TOLFENPYRAD], the inhibition at 10 µM is 93.3% (active).

Regarding `COC(=O)c1c(NC(=O)c2cc3ccccc3oc2=O)sc2c1CCN(Cc1ccccc1)C2`, the inhibition at 10 µM is on record as 17.2% (not active).

With `FC(F)(F)c1cnc(Sc2nnc(-c3ccncc3)o2)c(Cl)c1`, the inhibition at 10 µM is listed as 42.8% (not active).

In the case of `CCOc1ccc2cc(-c3nn(CC4CCN(C)CC4)c4ncnc(N)c34)ccc2c1`, the inhibition at 10 µM was 28% (not active).

As to `COc1cc2ncnc(NC3CCN(Cc4ccccc4)CC3)c2cc1OC`, the inhibition at 10 µM is given as 13.6% (not active).

`CS(=O)(=O)N1CCC(Cn2nc(Cc3cccc4ccccc34)c3c(N)ncnc32)CC1`: the inhibition at 10 µM is given as 30.6% (not active).

Regarding `CNCCC(Oc1ccc(C(F)(F)F)cc1)c1ccccc1` (configuration not stated) [FLUOXETINE], the inhibition at 10 µM is 7.5% (not active).

For `CO/C=C(/C(=O)OC)c1ccccc1Oc1cc(Oc2ccccc2C#N)ncn1` [AZOXYSTROBIN], the inhibition at 10 µM is 33.7% (not active).

`CC1=NN(c2nc3ccccc3s2)C(=O)C1Cc1cccc2ccccc12` (configuration not stated): the inhibition at 10 µM is listed as 57.2% (not active).

In the case of `CC(C)c1ncc(-c2ccncc2)c([C@H]2CC[C@H](CNC(=O)c3cccnc3)CC2)n1`, the inhibition at 10 µM is given as 32.5% (not active).

As for `O=C(Nc1ccc2c(c1)B(O)OC2)c1ccccc1C(F)(F)F`, the inhibition at 10 µM is 89.8% (active).

For `COc1ccc(C2CC(c3cccs3)=NN2C(=O)c2ccco2)cc1OC` (configuration not stated), the inhibition at 10 µM is given as 34.6% (not active).

For `Nc1nc(N)c2c3c(sc2n1)CN(Cc1ccccc1)CC3`, the inhibition at 10 µM is recorded as 2.1% (not active).

Turning to `Cc1nn(C)c(C)c1NS(=O)(=O)c1c(Cl)cc(-c2ccnc(N3CCNCC3)c2)cc1Cl`, the inhibition at 10 µM is recorded as 58.2% (not active).

Consider `CCc1nc2ccccc2n1CC(O)COc1cc(C)ccc1Cl` (configuration not stated), for which the inhibition at 10 µM is given as 25.3% (not active).

`CC(C)/N=c1\cc2n(-c3ccc(Cl)cc3)c3ccccc3nc-2cc1Nc1ccc(Cl)cc1` [CLOFAZIMINE]: the inhibition at 10 µM was 67.9% (not active).

On to `COc1ccc(Cl)cc1NC(=O)CN(C)C(=O)c1cnn(-c2ccccc2)n1`, for which the inhibition at 10 µM is listed as 37.1% (not active).

Take `Cc1cc(C)nc(-n2nc(C)cc2Nc2ccccc2)n1`: the inhibition at 10 µM is listed as 31.5% (not active).

Turning to `CC(C)C(Oc1cccc2ccccc12)C(=O)O` (configuration not stated), the inhibition at 10 µM is given as 1.3% (not active).

As for `CCn1cnc2c(Nc3cc(F)cc(F)c3)nc(C#N)nc21`, the inhibition at 10 µM was 83.2% (active).

Turning to `CC1(C)Cc2c(c(N3CCOCC3)nc3snc(Br)c23)CO1`, the inhibition at 10 µM is given as 0% (not active).

On to `CCOC(=O)c1noc(N)c1-c1ccccc1`, for which the inhibition at 10 µM is 0% (not active).
